Measured values taken from US8574914B2, “Methods for mobile zinc measurement” (The General Hospital Corporation, priority 2009, dated 2013).

Assay: fluorescent zinc titration of ZPP1, fit to two-step binding model
Source text: Since ZPP1 contains two zinc-binding units, the following stepwise equilibria describe the binding events.
Two apparent binding constants, (K1app=1.52×10^11 M^−1, K2app=1.02×10^8 M^−1) were obtained by fitting the experimental data to the two-step model with high fidelity.

[1] = fluorescence titration, two-step model fit

O=C(O)c1ccccc1-c1c2cc(Cl)c(=O)c(CN(Cc3ccccn3)Cc3cnccn3)c-2oc2c(CN(Cc3ccccn3)Cc3cnccn3)c(O)c(Cl)cc12 [ZPP1]
apparent binding constant K1app (first step zinc binding) [1]: 1.52e+11 M⁻¹
apparent binding constant K2app (second step zinc binding) [1]: 1.02e+08 M⁻¹
zinc equivalents at which fluorescence intensity reaches its maximum (state B): ~2 equiv
fluorescence response on addition of up to 1 equiv of zinc (up to 1 equiv zinc (state A)): only a slight fluorescence increase
